Columns and labels:
Experiment in all cases: relative viability (nuclei count vs DMSO), 5 days (fraction); higher = more cells survive
Entinostat + Crizotinib = compound: Nc1ccccc1NC(=O)c1ccc(CNC(=O)OCc2cccnc2)cc1 [Entinostat] + C[C@@H](Oc1cc(-c2cnn(C3CCNCC3)c2)cnc1N)c1c(Cl)ccc(F)c1Cl [Crizotinib] (partner 1 µM)
Outline: (§1)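 Five library-drug doses in √10 steps were combined with a fixed anchor-drug dose, or a single drug was given alone, by pin tool to lung cancer cell lines in 1536-well plates the day after seeding. Nuclei were stained and counted after 5 days. Relative viability is the nuclei count in treated wells over that in vehicle wells, taken as the median of duplicate plates.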

[1] = compound: C1COCCN1C2=NC(=NC3=C2OC4=C3C=CC=N4)C5=CC(=CC=C5)NC(=O)C6=CN=C(C=C6)N + Nc1ncn([C@H]2C[C@H](O)[C@@H](CO)O2)c(=O)n1 [Decitabine] (partner 2 µM)
Outline: as §1

Entinostat + Linsitinib = compound: Nc1ccccc1NC(=O)c1ccc(CNC(=O)OCc2cccnc2)cc1 [Entinostat] + C[C@]1(O)C[C@@H](c2nc(-c3ccc4ccc(-c5ccccc5)nc4c3)c3c(N)nccn32)C1 [Linsitinib] (partner 1 µM)
Outline: as §1

SGI-1776 + Olaparib = compound: CN1CCC(CNc2ccc3ncc(-c4cccc(OC(F)(F)F)c4)n3n2)CC1 [SGI-1776] + O=C(c1cc(Cc2n[nH]c(=O)c3ccccc23)ccc1F)N1CCN(C(=O)C2CC2)CC1 [Olaparib] (partner 8 µM)
Outline: as §1

Row | Cell Line | relative viability (Entinostat + Crizotinib; first compound 0.02 µM) | relative viability (Entinostat + Crizotinib; first compound 0.06325 µM) | relative viability (Entinostat + Crizotinib; first compound 0.2 µM) | relative viability (Entinostat + Crizotinib; first compound 0.6325 µM) | relative viability (Entinostat + Crizotinib; first compound 2 µM) | relative viability ([1]; first compound 0.02 µM) | relative viability ([1]; first compound 0.06325 µM) | relative viability ([1]; first compound 0.2 µM) | relative viability ([1]; first compound 0.6325 µM) | relative viability ([1]; first compound 2 µM) | relative viability (Entinostat + Linsitinib; first compound 0.02 µM) | relative viability (Entinostat + Linsitinib; first compound 0.06325 µM) | relative viability (Entinostat + Linsitinib; first compound 0.2 µM) | relative viability (Entinostat + Linsitinib; first compound 0.6325 µM) | relative viability (Entinostat + Linsitinib; first compound 2 µM) | relative viability (SGI-1776 + Olaparib; first compound 0.08 µM) | relative viability (SGI-1776 + Olaparib; first compound 0.8 µM) | relative viability (SGI-1776 + Olaparib; first compound 2.53 µM) | relative viability (SGI-1776 + Olaparib; first compound 8 µM)
1 | NCI-H1651 | 0.877 | 0.9 | 0.878 | 0.807 | 0.721 | 0.65 | 0.643 | 0.614 | 0.66 | 0.568 | 0.952 | 0.976 | 0.959 | 0.827 | 0.365 | 0.205 | 0.187 | 0.18 | 0.174
2 | NCI-H1666 | 0.973 | 1.16 | 0.843 | 0.404 | 0.321 | 0.815 | 0.752 | 0.692 | 0.715 | 0.623 | 0.874 | 0.783 | 0.476 | 0.498 | 0.313 | 0.794 | 0.782 | 0.838 | 0.729
3 | NCI-H1734 | 0.622 | 0.709 | 0.894 | 0.555 | 0.423 | 0.534 | 0.575 | 0.482 | 0.537 | 0.484 | 0.908 | 0.985 | 0.987 | 0.916 | 0.817 | 0.69 | 0.691 | 0.715 | 0.567
4 | NCI-H1755 | 0.832 | 0.827 | 0.771 | 0.462 | 0.347 | 0.693 | 0.71 | 0.714 | 0.722 | 0.628 | 0.984 | 0.988 | 0.866 | 0.625 | 0.412 | 0.913 | 0.848 | 0.798 | 0.671
5 | NCI-H1792 | 0.979 | 1.04 | 0.86 | 0.796 | 0.569 | 0.688 | 0.66 | 0.519 | 0.531 | 0.213 | 0.476 | 0.502 | 0.392 | 0.276 | 0.153 | 0.623 | 0.533 | 0.429 | 0.453
6 | NCI-H1915 | 0.854 | 0.869 | 0.862 | 0.739 | 0.328 | 0.255 | 0.261 | 0.26 | 0.559 | 0.335 | 1.1 | 1.04 | 0.966 | 0.912 | 0.459 | 0.256 | 0.265 | 0.248 | 0.23
7 | NCI-H1944 | 0.971 | 0.756 | 0.629 | 0.344 | 0.249 | 0.418 | 0.474 | 0.456 | 0.527 | 0.476 | 1.12 | 1.19 | 1.23 | 0.554 | 0.357 | 0.411 | 0.406 | 0.422 | 0.354
8 | NCI-H1975 | 0.762 | 0.778 | 0.564 | 0.278 | 0.201 | 0.347 | 0.396 | 0.37 | 0.381 | 0.371 | 0.791 | 0.755 | 0.692 | 0.302 | 0.27 | 0.877 | 0.791 | 0.73 | 0.638
9 | NCI-H1993 | 0.832 | 0.848 | 0.774 | 0.76 | 0.597 | 0.549 | 0.293 | 0.531 | 0.547 | 0.57 | 0.642 | 0.832 | 0.673 | 0.65 | 0.661 | 0.989 | 0.943 | 1.01 | 0.955
10 | NCI-H2009 | 0.984 | 1.06 | 0.965 | 0.877 | 0.556 | 0.373 | 0.367 | 0.415 | 0.456 | 0.395 | 1.28 | 1.18 | 1.06 | 0.8 | 0.651 | 0.714 | 0.769 | 0.688 | 0.623
11 | NCI-H2023 | 0.526 | 0.596 | 0.324 | 0.17 | 0.109 | 0.248 | 0.246 | 0.23 | 0.325 | 0.191 | 0.671 | 0.778 | 0.48 | 0.191 | 0.133 | 0.499 | 0.516 | 0.51 | 0.347
12 | NCI-H2085 | 0.991 | 0.933 | 0.769 | 0.57 | 0.414 | 0.486 | 0.626 | 0.57 | 0.649 | 0.559 | 0.871 | 0.865 | 0.788 | 0.574 | 0.499 | 0.758 | 0.797 | 0.926 | 0.794
13 | NCI-H2087 | 0.716 | 0.672 | 0.818 | 0.559 | 0.467 | 0.267 | 0.281 | 0.255 | 0.332 | 0.211 | 0.815 | 0.733 | 0.779 | 0.559 | 0.481 | 0.601 | 0.637 | 0.727 | 0.521
14 | NCI-H2126 | 1.01 | 1.06 | 0.954 | 0.89 | 0.58 | 0.54 | 0.608 | 0.606 | 0.613 | 0.503 | 0.732 | 0.707 | 0.618 | 0.518 | 0.367 | 0.99 | 0.936 | 0.911 | 0.91
15 | NCI-H2347 | 0.686 | 0.581 | 0.653 | 0.5 | 0.408 | 0.603 | 0.657 | 0.651 | 0.755 | 0.575 | 0.987 | 0.984 | 0.903 | 0.408 | 0.349 | 0.606 | 0.674 | 0.632 | 0.614
16 | NCI-H2405 | 0.85 | 0.887 | 0.906 | 0.805 | 0.598 | 0.671 | 0.674 | 0.763 | 0.767 | 0.694 | 0.977 | 1.11 | 1.04 | 0.896 | 0.789 | 0.828 | 0.879 | 0.789 | 0.712
17 | NCI-H3122 | 0.28 | 0.265 | 0.319 | 0.313 | 0.334 | 0.391 | 0.354 | 0.366 | 0.487 | 0.322 | 1.02 | 1.03 | 1.07 | 1.08 | 0.868 | 0.688 | 0.697 | 0.62 | 0.647

Reference: the supplement of paper PMC10307832
